The test system of one series is Septoria nodorum. Put plainly: Biological test on isolated fungi in culture medium, 96-well microplates (Example B2). The series is classed as cell-based. The conditions noted are these: Parastagonospora nodorum, 120 h; dose of 50 ppm; culturing 5 days at 20° C.; optical density at 620 nm or 405 nm; read-out: inhibition of Septoria nodorum (percentage of inhibition of the growth, Abbott's formula). As to the method:
(§1) The test is carried out on isolated fungi in a culture medium, in 96-well microplates. The products are dissolved in acetonitrile and are then diluted to 1/50th in methanol, so as to distribute 50 μl for a dose of 50 ppm in each well. Once the compounds are distributed, the microplates are dried under a stream of nitrogen at 40° C. The culture medium and the inoculum are subsequently added.
(§2) The growth of the fungi is measured after culturing for 5 days at 20° C. by reading the optical density at 620 nm or 405 nm, depending on the strains. The effectiveness of the product is the percentage of inhibition of the growth of the fungi calculated according to Abbott's formula, the absorbance of the growth control wells and the absorbance of the treated wells being taken as reference values.
At a dose of 50 ppm, complete or good (at least 70%) inhibition of Septoria nodorum is observed with the compounds described in the following examples: 5, 28, 29, 30, 32, 33, 34, 40, 55, 57, 63, 65, 67, 68, 70, 72, 82 and 86.

The next series deals with Magnaporthe orysae. The series is described as follows: tissue or blood. The series is classed as cell-based. The conditions noted are these: 120 h, read-out: inhibition of Magnaporthe orysae (percentage of inhibition of the growth, Abbott's formula).
The subject of the next series is Rhizoctonia solani. The series is described as follows: Biological test on isolated fungi in culture medium, 96-well microplates (Example B6). The class given is cell-based. The conditions noted are these: 120 h, dose of 50 ppm, culturing 5 days at 20° C., optical density at 620 nm or 405 nm, read-out: inhibition of Rhizoctonia solani (percentage of inhibition of the growth, Abbott's formula). As to the method:
as §1, §2
At a dose of 50 ppm, complete or good (at least 70%) inhibition of Rhizoctonia solani is observed with the compounds described in the following examples: 28, 32, 55, 68 and 70.

Series [1] concerns Mycosphaerella graminacola. Put plainly: Biological test on isolated fungi in culture medium, 96-well microplates (Example B7). The class given is cell-based. As to conditions: 120 h, dose of 50 ppm, culturing 5 days at 20° C., optical density at 620 nm or 405 nm, read-out: inhibition of Mycosphaerella graminacola (percentage of inhibition of the growth, Abbott's formula). As to the method:
as §1, §2
At a dose of 50 ppm, complete or good (at least 70%) inhibition of Mycosphaerella graminacola is observed with the compounds described in the following examples: 28, 32, 55 and 70.

The next series deals with Botrytis cinerea. Put plainly: Biological test on isolated fungi in culture medium, 96-well microplates (Example B1). The class given is cell-based. The conditions noted are these: 120 h, dose of 50 ppm, culturing 5 days at 20° C., optical density at 620 nm or 405 nm, read-out: inhibition of Botrytis cinerea (percentage of inhibition of the growth, Abbott's formula). The protocol:
as §1, §2
At a dose of 50 ppm, complete or good (at least 70%) inhibition of Botrytis cinerea is observed with the compounds described in the following examples: 28, 32, 47, 65, 68 and 70.

In a further series the test system is Monilia fructigena. Put plainly: Biological test on isolated fungi in culture medium, 96-well microplates (Example B3). The series is classed as cell-based. As to conditions: 120 h, dose of 50 ppm, culturing 5 days at 20° C., optical density at 620 nm or 405 nm, read-out: inhibition of Monilia fructigena (percentage of inhibition of the growth, Abbott's formula). The protocol: as §1, §2
At a dose of 50 ppm, complete or good (at least 70%) inhibition of Monilia fructigena is observed with the compounds described in the following examples: 28, 32 and 70.

Another series deals with Venturia pirina. Put plainly: Biological test on isolated fungi in culture medium, 96-well microplates (Example B8). The class given is cell-based. The conditions noted are these: Venturia pyrina, 120 h; dose of 50 ppm; culturing 5 days at 20° C.; optical density at 620 nm or 405 nm; read-out: inhibition of Venturia pirina (percentage of inhibition of the growth, Abbott's formula). As to the method:
as §1, §2
At a dose of 50 ppm, complete or good (at least 70%) inhibition of Venturia pirina is observed with the compounds described in the following example: 28.

This note sets out measurements from patent publication US7071340B2, “Fungicidal 1-benzoxepin derivatives” (Bayer Cropscience S.A., priority 2001, dated 2006).

Molecules are shown by their SMILES. A value given as a limit tells only on which side of the number the result lay.

For `COC(=O)c1ccc2c(c1)CCC(=CCl)CO2` [Example 5, methyl 3-(chloromethylene)-2,3,4,5-tetrahydro-1-benzoxepin-7-carboxylate], the inhibition (usually the change of the read-out against control, counted positive when it falls) at 50 ppm with Septoria nodorum was no less than 70%. For `C=C1COc2ccc(C(=O)OC)cc2C(Cc2ccccc2)(S(=O)(=O)c2ccccc2)C1` (stereo not shown) [Example 6, methyl 5-benzyl-3-methylene-5-(phenylsulfonyl)-2,3,4,5-tetrahydro-1-benzoxepin-7-carboxylate], the melting point (commonly the temperature of the solid-liquid transition) fell in the range of 164 to 165 °C.

As for `C=C1COc2ccc(C(C)=O)cc2C(S(=O)(=O)c2ccccc2)C1` (stereo not shown) [Example 13, 1-[3-methylene-5-(phenylsulfonyl)-2,3,4,5-tetrahydro-1-benzoxepin-7-yl]ethanone], the melting point was 124 to 125 °C. In turn, `CC(=O)c1ccc2c(c1)CCC(=O)CO2` [Example 16, 7-acetyl-4,5-dihydro-1-benzoxepin-3(2H)-one] gave a melting point of 80 to 82 °C. As for `C=C1COc2ccc(C(C)=O)cc2C(Cc2ccccc2)(S(=O)(=O)c2ccccc2)C1` (stereo not shown) [Example 18, 1-[5-benzyl-3-methylene-5-(phenylsulfonyl)-2,3,4,5-tetrahydro-1-benzoxepin-7-yl]ethanone], the melting point was 131 to 132 °C. For the molecule `CC(=O)c1ccc2c(c1)C=CC(=CCl)CO2` [Example 28, 1-[3-(chloromethylene)-2,3-dihydro-1-benzoxepin-7-yl]ethanone], the inhibition at 50 ppm (in the series with Magnaporthe orysae; in the series with Rhizoctonia solani; in the series with Septoria nodorum; in series [1]; in the series with Botrytis cinerea; in the series with Monilia fructigena) was no less than 70% in each case. Besides, in the series with Venturia pirina, the inhibition at 50 ppm is no less than 70%. Take `CC(=O)c1ccc2c(c1)C(Cc1ccccc1)=CC(=O)CO2` [Example 29, 7-acetyl-5-benzyl-1-benzoxepin-3(2H)-one]: in the series with Septoria nodorum, the inhibition at 50 ppm was no less than 70%. For `CC(=O)c1ccc2c(c1)C(Cc1ccccc1)=CC(=CCl)CO2` [Example 30, 1-[5-benzyl-3-(chloromethylene)-2,3-dihydro-1-benzoxepin-7-yl]ethanone], in the series on Septoria nodorum, the inhibition at 50 ppm was no less than 70%. In the case of `COC(=O)c1ccc2c(c1)C=CC(=O)CO2` [Example 31, methyl 3-oxo-2,3-dihydro-1-benzoxepin-7-carboxylate], the melting point was 98 °C. As to `COC(=O)c1ccc2c(c1)C=CC(=CCl)CO2` [Example 32, methyl 3-(chloromethylene)-2,3-dihydro-1-benzoxepin-7-carboxylate], the melting point is 72 to 77 °C. Moreover, in the series on Magnaporthe orysae, the inhibition at 50 ppm was no less than 70%. Further, in the series on Rhizoctonia solani, the inhibition at 50 ppm is no less than 70%. Also, the inhibition at 50 ppm in the series with Septoria nodorum is no less than 70%. Further, the inhibition at 50 ppm in series [1] is no less than 70%. Also, in the series with Botrytis cinerea, the inhibition at 50 ppm is no less than 70%. The inhibition at 50 ppm with Monilia fructigena was no less than 70%. Turning to `COC(=O)c1ccc2c(c1)C(Cc1ccccc1)=CC(=O)CO2` [Example 33, methyl 5-benzyl-3-oxo-2,3-dihydro-1-benzoxepin-7-carboxylate], the inhibition at 50 ppm in the series with Septoria nodorum is no less than 70%. `COC(=O)c1ccc2c(c1)C(Cc1ccccc1)=CC(=CCl)CO2` [Example 34, methyl 5-benzyl-3-(chloromethylene)-2,3-dihydro-1-benzoxepin-7-carboxylate]: the inhibition at 50 ppm in the series with Septoria nodorum is no less than 70%. `C=C1C=Cc2cc(C(=O)O)ccc2OC1` [Example 40, 3-methylene-2,3-dihydro-1-benzoxepin-7-carboxylic acid] gave a melting point of 188 °C. Also, in the series on Septoria nodorum, the inhibition at 50 ppm was no less than 70%. With `C=C1C=Cc2cc(C(=O)Nc3ccccc3)ccc2OC1` [Example 41, 3-methylene-N-phenyl-2,3-dihydro-1-benzoxepin-7-carboxamide], the melting point was 139 °C. The molecule `COC(=O)c1ccc2c(c1)C=CC(=C(Cl)Cl)CO2` [Example 54, methyl 3-(dichloromethylene)-2,3-dihydro-1-benzoxepin-7-carboxylate] yielded a melting point of 119 to 121 °C. As to `O=C(O)c1ccc2c(c1)C=CC(=CCl)CO2` [Example 63, 3-(chloromethylene)-2,3-dihydro-1-benzoxepin-7-carboxylic acid], the melting point was greater than 260 °C. Further, in the series on Septoria nodorum, the inhibition at 50 ppm was no less than 70%. In the case of `O=Cc1ccc2c(c1)C=CC(=CCl)CO2` [Example 72, 3-(chloromethylene)-2,3-dihydro-1-benzoxepin-7-carbaldehyde], in the series with Septoria nodorum, the inhibition at 50 ppm is no less than 70%.
